# In a melting point compilation (Tetko et al.):
row,melting point,SMILES
1,55 to 59 °C,CC(=O)CS(=O)(=O)c1ccccc1
2,35 °C,CC(=O)c1ccc(C2CC2(Cl)Cl)cc1 (centres undefined)
3,85 to 86 °C,O=C=Nc1cc(F)cc2c1OCOC2
4,114 to 119 °C,CC(=O)OCC1OC(S)C(OC(C)=O)C(OC(C)=O)C1OC(C)=O (centres undefined)
5,210 °C,NC(=O)/C(=C\c1ccccc1O)c1nc2ccccc2s1
6,78 °C,Cc1cccc2cc3ccccc3c(=O)n12
7,65 °C,CC(O)(C(=O)c1ccccc1)c1ccccc1 (centres undefined)
8,133 to 135 °C,O=C(COc1ncn(-c2ccc(Cl)cc2)n1)NNC(=S)NCc1ccccc1
9,222 °C,NC(=O)c1ccccc1C(N)=O
10,270 °C,CC1CCc2cc3c(cc2N1C(=O)c1ccccc1)CCC(C)N3C(=O)c1ccccc1 (centres undefined)
11,129 °C,CC(=O)Nc1ccc(C)cc1C
12,158 °C,NS(=O)(=O)c1cc2c(s1)C(O)CCS2 (centres undefined)
13,108 °C,CC(=O)c1ccc(-c2c(Cl)cc(Cl)cc2Cl)o1
14,120 to 125 °C,C1=CC2CC1[C@@H](P(c1ccccc1)c1ccccc1)[C@@H]2P(c1ccccc1)c1ccccc1
15,-26 °C,CCCCC(=O)NC
16,-90 °C,CCCC=CCCC
17,70 to 71 °C,CC(C)=CCC(C#N)(CC=C(C)C)C(=O)O
18,190 °C,CC1(C)SC2C(N3C(=O)C(c4ccccc4)NC3(C)C)C(=O)N2C1C(=O)O (centres undefined)
19,155 °C,CCOC(=O)C(C(C)=O)C(C)C(C(C)=O)C(=O)OC1CC(C)CCC1C(C)C (centres undefined)
20,120 to 121 °C,COc1cscc1C(N)=O
21,88 to 90 °C,Cc1nc(-c2ccc(S(=O)(=O)Cl)s2)cs1
22,63 °C,Cc1nc2cc(-c3ccccc3)ccc2o1
23,192 to 193 °C,CCOC(=O)CSc1nc(=O)[nH]c2c1CCCC2
24,129 °C,CC(=O)c1ccc(N2CCCC2)cc1

row,melting point,SMILES
1,78 °C,C=CCN=C(S)NCCO
2,9 °C,Nc1ccc(Cl)cc1C(F)(F)F
3,126 to 127 °C,CC(=O)Nc1ccc(S(=O)(=O)NCCO)cc1
4,144 °C,Cc1ccccc1N/N=C(\C#N)c1nc(-c2ccccc2)cs1
5,180 °C,N[C@@H]1C=C[C@H](C(=O)O)C1
6,135 °C,CC(=O)OCC1OC(OC2OC=CC3C(OC(=O)c4ccc(OC(C)=O)cc4)C4OC4(COC(C)=O)C23)C(OC(C)=O)C(OC(C)=O)C1OC(C)=O (centres undefined)
7,118 to 120 °C,COC1=C(OC)/C(=C/C2CCC=CC23OC(=O)C(OC)=C3OC)OC1=O (centres undefined)
8,114 to 115 °C,C/C(CCc1oc2ccc(Cl)cc2c1-c1ccc(C)o1)=N/O
9,160 °C,Cc1ncc(CO)c(CO)c1O
10,90 °C,COC(=O)CNC(SC)=C(C#N)C#N
11,177 °C,CC1=NN(CN2CCCCC2)C(=O)/C1=N\Nc1cccnc1
12,150 °C,O=NN1NC(=O)CC1c1ccc(C2CC(=O)NN2N=O)cc1 (centres undefined)
13,136 to 140 °C,CC1(C)OC2C(=O)OC(CO)C2O1 (centres undefined)
14,246 to 248 °C,S=c1[nH]ccn1-c1ccccc1Cl
15,345 °C,O=C(O)c1cc(=O)[nH]c(=O)[nH]1
16,64 to 65 °C,CC1(O)CSC(C)(O)CS1 (centres undefined)
17,240 to 243 °C,NC(=O)c1cc(O)c(O)c(O)c1
18,238 °C,CCOC(=O)/C(C#N)=C/c1ccc(-c2ccc([N+](=O)[O-])cc2)o1
19,17 °C,CCOC(=O)C(O)C(O)C(=O)OCC (centres undefined)
20,82 to 88 °C,NC(=NO)c1cccc(C(F)(F)F)c1
21,105 °C,CCOC(=O)CC(/C=C1\C(=O)C2(C)CCC1C2(C)C)(/C=C1\C(=O)C2(C)CCC1C2(C)C)C(=O)OCC (centres undefined)
22,159 °C,Nc1cccc(Cl)c1C(=O)O
23,-36 °C,C=CN(C)C(C)=O
24,198 °C,CCOC(=O)CNc1cc(NCC(=O)OCC)c([N+](=O)[O-])cc1[N+](=O)[O-]

row,melting point,SMILES
1,104 °C,Cc1[nH]nc(-c2ccccc2)c1C
2,111 °C,CC(OCC(=O)c1ccccc1)=C(C#N)c1ccccc1
3,95 °C,C=CCc1cc(OC)c(O)c(C(=O)NCCO)c1
4,138 °C,c1ccc2c(c1)c(Cc1cn(CN3CCCCC3)c3ccccc13)cn2CN1CCCCC1
5,295 °C,CC(=O)N1C(=O)Cc2cc3c(cc21)N(C(C)=O)C(=O)C3
6,194 to 195 °C,Cc1nc(I)c(I)[nH]1
7,270 to 275 °C,Oc1cccc2c(O)nccc12
8,164 °C,O=C(C=Cc1ccc([N+](=O)[O-])cc1)c1ccccc1
9,-68.3 °C,CCCCCCCOCC
10,55 °C,CCCCCCCCCCCCCCCCOCCCCCCCCCCCCCCCC
11,159 °C,Cc1c(C)c(C)c(C#N)c(C)c1C
12,219 to 221 °C,CC(=O)N[C@@H](Cc1ccccc1)C(=O)N[C@@H](Cc1cc(I)c(O)c(I)c1)C(=O)O
13,151 to 154 °C,CSc1scc2c1C(=NO)CC(C)(C)C2
14,234 °C,CC(=NNc1ccccc1)C(=O)c1cc(C(=O)C(C)=NNc2ccccc2)c([N+](=O)[O-])cc1[N+](=O)[O-]
15,196 to 197 °C,O=C(O)c1cnc2ccccn12
16,-42.5 °C,CCC(C)(CC)C(C)(C)C
17,190 to 194 °C,O=c1[nH]nc(S)n1C1CCCCC1
18,198 °C,O=C(O)C=CC(=O)Nc1cccc(Cl)c1
19,149 °C,COc1ccc(C(C)=CC(=O)O)c(OC)c1
20,81 to 85 °C,N#CC1(c2ccc(Cl)cc2Cl)CC1
21,207 to 209 °C,CSc1nc2cc(NCc3ccccc3Cl)ccc2[nH]1
22,112 to 115 °C,CNC(C)=C(C(=O)OC)C(=O)c1cc(Cl)nc(Cl)c1
23,210 to 215 °C,NC1=NN(c2ccccc2)C(=O)C1
24,77 °C,OCc1ccncn1

row,melting point,SMILES
1,-40 °C,C1CCC2OC2C1 (centres undefined)
2,38 °C,N#CC=Cc1ccco1
3,124 °C,CCOC(=O)c1nnsc1N
4,118 °C,O=C(O)C(CO)c1ccccc1 (centres undefined)
5,180 °C,O=C1OC(c2ccccc2)=N/C1=C/c1ccc(-c2ccc(Br)cc2)o1
6,201 to 202 °C,COC1(OC)CC=CCC(OC)(OC)CC=CC1
7,25 °C,O=C1CCCCCCCCCCCC1
8,129 °C,CC1=NN(c2ccccc2)C(=O)C1
9,118 °C,O=C1c2ccccc2C(=O)N1CC#CCCl
10,46 to 49 °C,O=C1C(Cl)=C(Cl)C(Cl)=C(Cl)C1(Cl)Cl
11,190 °C,C#CC1=C(C=NNc2ccc([N+](=O)[O-])cc2[N+](=O)[O-])CCCC1
12,48 °C,COc1ccc(N=C=S)cc1OC
13,98.6 °C,NC(=S)c1ccc2occc2c1
14,4 °C,CCCCCCN1CC(C(=O)OC)CC1=O (centres undefined)
15,88 °C,COC(=O)c1cc(Br)c(C)c(Br)c1
16,186 °C,CC(Cc1ccc(O)c(O)c1)C(C)Cc1ccc(O)c(O)c1 (centres undefined)
17,127 to 128 °C,O=C(Cl)c1cc2ccccc2n1S(=O)(=O)c1ccccc1
18,91.5 °C,COc1c(OC)c(OC(C)=O)c2cc(Cl)ccc2c1OC(C)=O
19,159 °C,OCc1cc(-c2ccco2)[nH]n1
20,26 to 30 °C,C=C1OC(=O)OC1(C)C
21,184 to 186 °C,ON=CNc1ncccn1
22,222 °C,NC(CC(=O)O)c1ccccc1 (racemic)
23,85 to 86 °C,Cc1nc(-c2ccccc2)ncc1CO
24,206 °C,CCOc1n[nH]c(=O)c(Br)c1Br

row,melting point,SMILES
1,121 to 123 °C,Cc1ccc2cc(Cl)c(Cl)cc2n1
2,214 °C,O=C(Nc1ccc(Cl)cc1)Nc1ccc(Cl)c(C(F)(F)F)c1
3,42 °C,CC1(C)CCC(=O)CC1
4,163 °C,NN=C(/C(=N/N)c1ccc2ccccc2c1)c1ccccc1
5,106 °C,S=C(Oc1ccccc1)Oc1ccccc1
6,65 °C,CCOC(=O)Nc1c([N+](=O)[O-])cc(C)cc1[N+](=O)[O-]
7,211 to 213 °C,Cn1cc(Br)c(C(=O)O)n1
8,193 to 194 °C,O=P(c1ccccc1)(c1ccccc1)C1C=C(c2ccc(Br)cc2)OC(c2ccc(Br)cc2)=C1
9,142 to 143 °C,O=C(O)c1c(F)c(Cl)c(F)c(Cl)c1F
10,185 °C,O=C1c2ccccc2C(=O)C1c1cc(Cl)c([N+](=O)[O-])cc1[N+](=O)[O-]
11,170 °C,COc1cc(OC)nc(NC(=O)NS(=O)(=O)c2c(-c3nnn(C)n3)cnn2C)n1
12,-32 °C,COc1ccc(C)cc1
13,117 to 118 °C,c1ccc2cc3c(cc2c1)OCCOCCOCCOCCO3
14,144 °C,ClC(=C(Cl)c1ccccc1)c1ccccc1
15,260 °C,CCOC(=O)c1sc2sc(C#N)c(N)c2c1N
16,87 °C,c1coc(C2CNCCN2)c1 (centres undefined)
17,122 to 124 °C,Cc1nc2ccc(N)cc2s1
18,60 °C,CC(C)[C@H](NC(=O)OCc1ccccc1)C(=O)O
19,105 to 106 °C,ON=CC1=C(C#Cc2ccccc2)CCC1
20,155 °C,CC1(C)c2cccc(P(C(C)(C)C)C(C)(C)C)c2Oc2c(P(C(C)(C)C)C(C)(C)C)cccc21
21,236 °C,O=C(c1cccs1)c1nn2c(nc(=O)c3ccccc32)s1

row,SMILES,melting point
1,O=P(Oc1ccccc1)(Oc1ccccc1)Oc1noc2ccccc12,64 to 68 °C
2,CC=C1CC(C)C(O)(CO)C(=O)OCC2=CCN3CCC(OC1=O)C23 (centres undefined),212 °C
3,O=C1CN=C(c2ccccc2)c2cc([N+](=O)[O-])ccc2N1,225 °C
4,ICCCCCCCCI,16 to 21 °C
5,CC1OC(C)OC(C)OC(C)O1 (centres undefined),246 °C
6,CC1=C(C)C(=O)C(C)=C(C)C1=O,112 °C
7,Clc1cc2c(cc1Cl)Oc1c(cc(Cl)c(Cl)c1Cl)O2,240 °C
8,CNC(=O)Oc1cc(C)c(C)c(C)c1,110 °C
9,S=C=NC(c1ccccc1)(c1ccccc1)c1ccccc1,138 to 140 °C
10,Cc1cc(C)c(N)c(C)c1N,90 °C
11,COc1ccc(N)cc1N,67.5 °C
12,COc1cc(CC(C)N)c(OC)cc1C (centres undefined),60.8 °C
